The results in this text go back to patent US20240366842A1, “DECELLULARIZED TISSUE HYDROGELS” (THE UNIVERSITY OF NOTTINGHAM, priority 2021, published 2024).

The subject of data set [1] is SH-SY5Y (human neuroblastoma cell line). Put plainly: LDH cytotoxicity assay, indirect (extract) testing. Format: cell-based. Particulars: media conditioned 72 hours, cells exposed 24 hours, 1 mM in 5% v/v DMSO, 10 mM in 10% v/v DMSO. As for the experimental part: (§1) The cytotoxicity of PA crosslinked decellularized tissue hydrogels was assessed by an LDH assay in which hydrogels were incubated with SH-SY5Y (human neuroblastoma cell line).
(§2) Crosslinkers tested were: • PA [publicly available food supplement] • Purified oligomeric PA (OPA) [reference standard quality] • GA • GP
(§3) These were all tested in 1 and 10 mM concentrations, with the 1 mM in a solution containing 5% v/v of DMSO, and the 10 mM in a solution containing 10% v/v DMSO.
(§4) The LDH assay quantifies how many cells have died by quantifying the level of lactate that is present in the culture medium which will have been released upon cell membrane disruption during their death. The assay contains […] releases NADH which in turn can react with the dye present in the assay solutions to produce a colorimetric change. This change can be read through absorbance on a microplate spectrophotometer.
(§5) All results for the LDH have been calculated to % cytotoxicity as per the following formula recommended by the manufacturer: […]
Gels were made and crosslinked as per normal procedure and immersed in culture media for 72 hours conditioning. The conditioned culture media was then filtered and placed onto cells for a period of 24 hours. Following exposure to the conditioned media, a sample of the media was removed for testing through LDH.

Data set [2] shares this test system. The data set is described as follows: LDH cytotoxicity assay, direct testing. Format: cell-based. Particulars: gel in contact with cell monolayer 24 hours, 1 mM in 5% v/v DMSO, 10 mM in 10% v/v DMSO. As for the experimental part: as §1, §2, §3, §4, §5
Gels were made and crosslinked as per normal procedure and immersed in Hanks balanced salt solution (HBSS) containing 1% v/v of antibiotics and antimycotics overnight. The gels were then removed and immersed into culture media for 2 hours before placing on top of the cell monolayer and ensuring direct contact. […]

On to Triton-X-100 [5% Triton], for which the “LDH (% cytotoxicity relative to Triton)” value in data set [1] and in data set [2] was 100% throughout.
